Earlier results in PubChem BioAssay AID1259409 (Chemical Carcinogenesis Research Information System (CCRIS), 2018).

Tested on: rodent chemically induced tumor inhibition, incidence and multiplicity
Assay: CCRIS tumor inhibitor studies
Settings: Route [Inhibitor]: ORAL, Species: RAT

## COc1cc(/C=C/C(=O)O[C@H]2CC[C@]34C[C@]35CC[C@]3(C)[C@@H]([C@H](C)CCC=C(C)C)CC[C@@]3(C)[C@@H]5CC[C@H]4C2(C)C)ccc1O
Carcinogen: 3,2'-DIMETHYL-4-AMINOBIPHENYL, 13394-86-0, Dose [Inhibitor]: 0, 2% IN BASAL DIET BEGINNING POST CARCINOGEN TREATMENT AND CONTINUING FOR 40 WK (STUDY DURATION: 60 WK), Strain/Sex: F344/MALE, Target Tissue: Type of Lesion: SMALL INTESTINE: ADENOMA AND ADENOCARCINOMA, Dose [Carcinogen]: 50 MG/KG 1/2 WK FOR 20 WK TO RATS MAINTAINED ON ETHINYL ESTRADIOL CONTAINING DIET (0.75 PPM) FOR 1 WK CYCLED WITH ETHINY, Promoter: ETHINYL ESTRADIOL, 57-63-6
  tumour outcome (control, treated, inhibition, significance): 2/10 (20%), 3/13 (23%), -15%, not significant
Carcinogen: 3,2'-DIMETHYL-4-AMINOBIPHENYL, 13394-86-0, Dose [Inhibitor]: 0, 2% IN BASAL DIET BEGINNING POST CARCINOGEN TREATMENT AND CONTINUING FOR 40 WK (STUDY DURATION: 60 WK), Strain/Sex: F344/MALE, Target Tissue: Type of Lesion: SUBCUTIS: TUMOR, Dose [Carcinogen]: 50 MG/KG 1/2 WK FOR 20 WK TO RATS MAINTAINED ON ETHINYL ESTRADIOL CONTAINING DIET (0.75 PPM) FOR 1 WK CYCLED WITH ETHINY, Promoter: ETHINYL ESTRADIOL, 57-63-6
  tumour outcome (control, treated, inhibition, significance): 1/10 (10%), 0/13 (0%), 100%, not significant
Carcinogen: 3,2-DIMETHYL-4-AMINOBIPHENYL, 13394-86-0, Dose [Inhibitor]: 0, 2% IN BASAL DIET BEGINNING POST CARCINOGEN TREATMENT AND CONTINUING FOR 40 WK (STUDY DURATION: 60 WK), Strain/Sex: F344/MALE, Target Tissue: Type of Lesion: PREPUTIAL GLAND: ADENOMA AND CARCINOMA, Dose [Carcinogen]: 50 MG/KG 1/2 WK FOR 20 WK TO RATS MAINTAINED ON ETHINYL ESTRADIOL CONTAINING DIET (0.75 PPM) FOR 1 WK CYCLED WITH ETHINY, Promoter: ETHINYL ESTRADIOL, 57-63-6
  tumour outcome (control, treated, inhibition, significance): 5/10 (50%), 8/13 (62%), -24%, not significant
Carcinogen: 3,2-DIMETHYL-4-AMINOBIPHENYL, 13394-86-0, Dose [Inhibitor]: 0, 2% IN BASAL DIET BEGINNING POST CARCINOGEN TREATMENT AND CONTINUING FOR 40 WK (STUDY DURATION: 60 WK), Strain/Sex: F344/MALE, Target Tissue: Type of Lesion: ZYMBAL GLAND: ADENOMA AND CARCINOMA, Dose [Carcinogen]: 50 MG/KG 1/2 WK FOR 20 WK TO RATS MAINTAINED ON ETHINYL ESTRADIOL CONTAINING DIET (0.75 PPM) FOR 1 WK CYCLED WITH ETHINY, Promoter: ETHINYL ESTRADIOL, 57-63-6
  tumour outcome (control, treated, inhibition, significance): 2/10 (20%), 0/13 (0%), 100%, not significant
Carcinogen: 3,2-DIMETHYL-4-AMINOBIPHENYL, 13394-86-0, Dose [Inhibitor]: 0, 200% PPM IN BASAL DIET BEGINNING POST CARCINOGEN TREATMENT AND CONTINUING FOR 40 WK (STUDY DURATION: 60 WK), Strain/Sex: F344/MALE, Target Tissue: Type of Lesion: LARGE INTESTINE: ADENOMA AND ADENOCARCINOMA, Dose [Carcinogen]: 50 MG/KG 1/2 WK FOR 20 WK TO RATS MAINTAINED ON ETHINYL ESTRADIOL CONTAINING DIET (0.75 PPM) FOR 1 WK CYCLED WITH ETHINY, Promoter: ETHINYL ESTRADIOL, 57-63-6
  tumour outcome (control, treated, inhibition, significance): 3/10 (30%), 3/13 (23%), 23%, not significant
Carcinogen: 7,12-DIMETHYLBENZ[A]ANTHRACENE [57-97-6], Dose [Inhibitor]: 1% IN DIET FOR 35 WK BEGINNING 1 WK POST LAST CARCINOGEN DOSE (STUDY DURATION: 36 WK), Strain/Sex: SPRAGUE-DAWLEY/FEMALE, Target Tissue: Type of Lesion: MAMMARY GLAND: CARCINOMA, Dose [Carcinogen]: 50 MG/KG BW ONCE (STUDY DURATION: 36 WK), Promoter: NONE
  tumour outcome (control, treated, inhibition, significance): 14/15 (93%), 15/16 (94%), -1%, not significant
Carcinogen: 7,12-DIMETHYLBENZ[A]ANTHRACENE [57-97-6], Dose [Inhibitor]: 1% IN DIET FOR 35 WK BEGINNING 1 WK POST LAST CARCINOGEN DOSE (STUDY DURATION: 36 WK), Strain/Sex: SPRAGUE-DAWLEY/FEMALE, Target Tissue: Type of Lesion: MAMMARY GLAND: FIBROADENOMA, Dose [Carcinogen]: 50 MG/KG BW ONCE (STUDY DURATION: 36 WK), Promoter: NONE
  tumour outcome (control, treated, inhibition, significance): 3/15 (20%), 2/16 (13%), 35%, not significant
Carcinogen: 7,12-DIMETHYLBENZ[A]ANTHRACENE, 57-97-6, Dose [Inhibitor]: 0, 1% IN DIET FOR 35 WK BEGINNING POST CARCINOGEN DOSE (STUDY DURATION: 36 WK), Strain/Sex: SPRAGUE-DAWLEY/FEMALE, Target Tissue: Type of Lesion: EAR DUCT: TUMOR, Dose [Carcinogen]: 50 MG/KG BW IN CORN OIL ONCE, Promoter: NONE USED
  tumour outcome (control, treated, inhibition, significance): 5/15 (33%), 7/16 (44%), -33%, not significant
Carcinogen: 7,12-DIMETHYLBENZ[A]ANTHRACENE, 57-97-6, Dose [Inhibitor]: 0, 1% IN DIET FOR 35 WK BEGINNING POST CARCINOGEN DOSE (STUDY DURATION: 36 WK), Strain/Sex: SPRAGUE-DAWLEY/FEMALE, Target Tissue: Type of Lesion: MAMMARY GLAND: ADENOCARCINOMA, Dose [Carcinogen]: 50 MG/KG BW IN CORN OIL ONCE, Promoter: NONE USED
  tumour outcome (control, treated, inhibition, significance): 14/15 (93%), 15/16 (94%), -1%, not significant
Carcinogen: 7,12-DIMETHYLBENZ[A]ANTHRACENE, 57-97-6, Dose [Inhibitor]: 0, 1% IN DIET FOR 35 WK BEGINNING POST CARCINOGEN DOSE (STUDY DURATION: 36 WK), Strain/Sex: SPRAGUE-DAWLEY/FEMALE, Target Tissue: Type of Lesion: MAMMARY GLAND: FIBROADENOMA, Dose [Carcinogen]: 50 MG/KG BW IN CORN OIL ONCE, Promoter: NONE USED
  tumour outcome (control, treated, inhibition, significance): 3/15 (20%), 2/16 (13%), 35%, not significant
